This is an account of results in article PMC11473416, “Coumarin-chalcone derivatives as dual NLRP1 and NLRP3 inflammasome inhibitors targeting oxidative stress and inflammation in neurotoxin-induced HMC3 and BE(2)-M17 cell models of Parkinson's disease” (Frontiers in Aging Neuroscience, 2024).

For one test, the system named is caspase-3. Nature of the test: caspase-3 activity assay in MPP^+-treated BE(2)-M17 cells. It is filed as cell-based, human. As for the experimental part: BE(2)-M17 cells were plated onto six-well (4 × 10^5/well) and treated with retinoic acid, LM compounds (10 μM), and MPP^+ as described. Cells were collected on day 7 and lysed by six freeze/thaw cycles. Types of substrates applied were: Ac-Tyr-Val-Ala-Asp-7-amino-4-trifluoromethyl coumarin (YVAD-AFC) for caspase-1, Ac-Val-Glu-Ile-Asp-7-amino-4-trifluoromethyl coumarin (VEID-AFC) for caspase-6 (BioVision, Milpitas, CA, USA), and Ac-Asp-Glu-Val-Asp-7-amido-4-methylcoumarin (DEVD-AMC) for caspase-3 (Sigma-Aldrich). The reaction mixtures were incubated for 1.5 h at 37°C per the manufacturer's instructions. The fluorescence intensity at 400 nm excitation and 505 nm emission (caspase-1 and caspase-6) or 360 nm excitation and 460 nm emission (caspase-3) wavelengths were recorded (BioTek FLx800).

The next test has as its system PGC-1α. Nature of the test: Western blot PGC-1α in MPP^+-treated BE(2)-M17 cells. It is filed as cell-based, human. Conditions: BE(2)-M17, compound 10 μM + 0.62 mM MPP^+; MPP^+ alone 75%; untreated = 100%. As for the experimental part: (§1) HMC3 (2 × 10^5/6-well) or BE(2)-M17 (4 × 10^5/6-well) cells were lysed in buffer (composition: 50 mM Tris-HCl pH8.0, 2 mM EDTA pH8.0, 150 mM NaCl, 0.5% sodium deoxycholate, 0.1% SDS, 50 mM NaF, 1% NP40) containing the protease and/or phosphatase inhibitor cocktail (Sigma-Aldrich). After sonication, the lysates were centrifuged (12,000 × g for 10 min at 4°C) and protein concentrations determined (Bradford protein assay; Bio-Rad, Hercules, CA, USA). Aliquots of protein (20 μg) were separated by electrophoresis using 10%−12% SDS–polyacrylamide gel followed by transfer to a polyvinylidene fluoride (PVDF) membrane. After being blocked, the PVDF membrane was stained with NLRP3 (#15101s), caspase-1 (CASP1; #3866s), iNOS (#20609), IL-1β (#12242), CREB (#9192), BCL2-associated X (BAX; #2772; 1:1,000; Cell Signaling), IL-6 (#ab6672), TNF-α (#ab9739), GCLC (#ab41463), BDNF (#ab108319; 1:1,000; Abcam, Cambridge, UK), NLRP1 (#NBP-1-54899; 1:500; Novus Biologicals, Centennial, CO, USA), NRF2 (#ABE413), NQO1 (#N5288), p-CREB (Ser133; #06-519; 1:1,000; Sigma-Aldrich), PGC-1α (#GTX37356; 1:1,000; GeneTex, Irvine, CA, USA), B-cell lymphoma 2 (BCL2; #IR94-392; 1:1,000; iReal Biotechnology, New Taipei City, Taiwan), or glyceraldehyde-3-phosphate dehydrogenase (GAPDH; #30000002; 1:1,000; MDBio, Taipei, Taiwan) primary antibody at room temperature 2 h or 4°C overnight. The immune complexes were detected using horseradish peroxidase (HRP)-conjugated goat anti-mouse or goat anti-rabbit IgG antibody (1:5,000; GeneTex) and chemiluminescent HRP substrate (Millipore, Burlington, MA, USA). Immunoreactive bands were captured (ImageQuant™ LAS 4000, GE Healthcare, Chicago, IL, USA) and quantified (Multi Gauge V3.0 software, Fujifilm, Tokyo, Japan).

In test [1] the test system is MPP^+-treated BE(2)-M17 cells. Nature of the test: cell viability (MTT) in MPP^+-treated BE(2)-M17 cells. It is filed as cell-based. To be noted: Homo sapiens, read-out: cell viability. As to the method:
To examine neuroprotective potential of LM compounds, BE(2)-M17 cells were plated onto 96-well plate [1 × 10^4/well for cell viability and lactate dehydrogenase (LDH) release assays] or 24-well plate (5 × 10^4/well for ROS assay) with retinoic acid addition (5 μM) on day 1 to initiate neuronal differentiation. On day 5, after removing retinoic acid, cells were pre-treated with LM compounds (1–10 μM) for 8 h, followed by addition of 0.62 mM MPP^+ for 40 h. The cell viability was evaluated by MTT assay as described, and the release of LDH in cell culture medium was measured by using LDH cytotoxicity assay kit (Cayman Chemical). The absorbance was read at 490 nm with Multiskan GO microplate reader (Thermo Fisher Scientific).

The subject of a further test is NRF2. Nature of the test: Western blot NRF2 in MPP^+-treated BE(2)-M17 cells. It is filed as cell-based, human. Conditions: BE(2)-M17, compound 10 μM + 0.62 mM MPP^+; MPP^+ alone 75%; untreated = 100%. As for the experimental part:
as §1
In general terms: A western blot detects proteins with antibodies after separation by electrophoresis.

The next test concerns BE(2)-M17 cells. The test is described as follows: high-content analysis of neurite outgrowth in MPP^+-treated BE(2)-M17 cells. Conditions: for neurite length: MPP^+ alone 24.2 μm. It is filed as cell-based, human. As to the method: For automated neuronal morphology analysis, BE(2)-M17 cells were seeded in 24-well plate (5 × 10^4/well) and treated with retinoic acid, LM compounds (10 μM), and MPP^+ as described. On day 7, after being fixed and permeated, cells were stained with TUBB3 (neuronal class III β-tubulin) antibody (#802001; 1:1,000; BioLegend, San Diago, CA, USA) at 4°C overnight, followed by Alexa Fluor 555-donkey anti-rabbit (#A-31572) antibody (1:1,000; Thermo Fisher Scientific) at room temperature for 2 h. TUBB3 is a β-tubulin isoform constitutively expressed in neurons and important for maintaining further neurite elongation (Ferreira and Caceres, [1992]). After nuclei staining with DAPI, neuronal images were captured at 531 nm excitation and 593 nm emission wavelengths (ImageXpress Micro Confocal; Molecular Devices). Microscopic images were segmented with multi-colored mask to assign each outgrowth to a cell body for quantification of neurite outgrowth. Neurite total length (μm) and numbers of primary neurites originated from neuronal cell body (process) and secondary neurites extended from primary neurites (branch) were analyzed (Neurite Outgrowth Application Module; Molecular Devices). For each sample, around 3,000 cells were analyzed in each of three independent experiments.

Setting [2] is: BE(2)-M17, compound 10 μM + 0.62 mM MPP^+, MPP^+-untreated = 100%.
Setting [3] is: BE(2)-M17, compound 10 μM + 0.62 mM MPP^+, MPP^+ alone 2.6.
Where [4] appears, read: BE(2)-M17, compound 10 μM + 0.62 mM MPP^+.

The structures appear in SMILES notation. Where two headings read alike, the source gives them in different places.

In general, viability refers to a read-out of living cells in per cent, often relative to untreated cells. Regarding `CN(C)c1ccc(/C=C/C(=O)c2c(O)c3ccccc3oc2=O)cc1` [LM-021, (E)-3-(3-(4-(dimethylamino)phenyl)acryloyl)-4-hydroxy-2H-chromen-2-one], in the test with caspase-3 (setting [2]), the caspase-3 activity was found to be 101%. Further, in the test with PGC-1α, the PGC-1α level is given as 98–109%. Besides, in test [1], the viability at 10 µM is 95 to 97%. Also, the NRF2 level in the test with NRF2 was 99–101%. For the same compound, the number of process in the test with BE(2)-M17 cells (setting [3]) is 2.8–3.0. Moreover, the neurite length in the test with BE(2)-M17 cells (setting [4]) is 26.2–27.2 μm.

Regarding `C[n+]1ccc(-c2ccccc2)cc1` [MPP^+, 1-methyl-4-phenyl pyridinium, reference compound], the caspase-3 activity in the test with caspase-3 (BE(2)-M17, 0.62 mM MPP^+ alone, untreated = 100%) is recorded as 114%. In the test on BE(2)-M17 cells (BE(2)-M17, 0.62 mM MPP^+ alone, untreated 1.2, not significant), this compound had a number of branch of 1.1. In the test with BE(2)-M17 cells (BE(2)-M17, 0.62 mM MPP^+ alone, untreated 2.9), the number of process was found to be 2.6. Besides, the “total length of neurite” value in the test on BE(2)-M17 cells (BE(2)-M17, 0.62 mM MPP^+ alone, untreated 26.0 μm) is 24.2 μm.

As to `O=C(/C=C/c1ccccc1O)c1c(O)c2ccccc2oc1=O` [LM-036], the caspase-3 activity with caspase-3 (setting [2]) is 101%. Moreover, the PGC-1α level with PGC-1α was 98–109%. The viability at 10 µM in test [1] is 95 to 97%. Further, in the test on NRF2, the NRF2 level is on record as 99–101%. For the same compound, the number of process with BE(2)-M17 cells (setting [3]) is reported as 2.8–3.0. Besides, the neurite length in the test on BE(2)-M17 cells (setting [4]) was 26.2–27.2 μm.

Regarding `Cc1ccc(/C=C/C(=O)c2c(O)c3ccccc3oc2=O)cc1` [LM-016], the caspase-3 activity in the test on caspase-3 (setting [2]) came to 102%. For the same compound, the PGC-1α level in the test on PGC-1α was 98–109%. Moreover, the viability at 10 µM in test [1] (retinoic acid-differentiated BE(2)-M17, compound 10 μM 8 h, then 0.62 mM MPP^+ 40 h, MPP^+ alone 81%, untreated = 100%) fell in the range of 95 to 97%. In addition, in the test on NRF2, the NRF2 level is on record as 99–101%.
